# Legend:
# Plasma [1] = experiment: Plasma concentration in rat at 240 mg/kg, po administered using compound, Lipoid S100 and pluronic f127 ratio 1:1:1 formulation relative to non-formulated compound after 4 to 6 hrs; type: ADME, organism-based; parameters: dose 240 mg/kg, route oral; conditions: in vivo
# Brain [2] = experiment: Drug level in rat brain at 240 mg/kg, po; type: ADME, organism-based; parameters: dose 240 mg/kg, route oral; conditions: in vivo
# Brain [3] = experiment: Drug level in rat brain at 240 mg/kg, po administered using compound, Lipoid S100 and pluronic f127 ratio 1:1:1 formulation; type: ADME, organism-based; parameters: dose 240 mg/kg, route oral; conditions: in vivo
# [4] = Ratio drug level in brain to plasma of rat at 240 mg/kg, po administered using compound, Lipoid S100 and pluronic f127 ratio 1:1:1 formulation after 8 hrs; type: ADME, organism-based; parameters: dose 240 mg/kg, route oral; conditions: read-out: BPR
# [5] = Ratio drug level in brain to plasma of rat at 240 mg/kg, po after 8 hrs; type: ADME, organism-based; parameters: dose 240 mg/kg, route oral; conditions: brain and plasma, read-out: BPR
# Prostaglandin E synthase = molecular target: T1, Prostaglandin E synthase (Homo sapiens, UniProt O14684); experiment: Inhibition of mPGES1
# T1 sequence (O14684 whole entry): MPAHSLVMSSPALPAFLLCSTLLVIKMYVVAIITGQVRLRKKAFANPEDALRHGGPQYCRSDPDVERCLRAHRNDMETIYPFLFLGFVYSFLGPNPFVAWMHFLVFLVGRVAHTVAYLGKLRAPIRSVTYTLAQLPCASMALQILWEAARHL
# [6] = Permeability from apical to basolateral side of human Caco2 cells assessed as mass balance at 5 mg/mL; type: ADME, cell-based; conditions: Caco-2, read-out: permeability
# [7] = Solubility of the compound in fed state simulated intestinal fluid at compound to Lipoid S100 ratio 1:3 after 3 hrs by HPLC analysis; type: physicochemical
# [8] = Permeability from apical to basolateral side of human Caco2 cells assessed as mass balance at compound, Lipoid S100 and vitamin E-TPGS ratio 1:1:1; type: ADME, cell-based; conditions: Caco-2, read-out: permeability
# Plasma [9] = experiment: Plasma concentration in rat at 240 mg/kg, po administered using compound, Lipoid S100 and pluronic f127 ratio 1:1:1 formulation relative to non-formulated compound after 8 hrs; type: ADME, organism-based; parameters: dose 240 mg/kg, route oral; conditions: in vivo
# Plasma [10] = experiment: Plasma concentration in rat at 240 mg/kg, po administered using compound, Lipoid S100 and pluronic f127 ratio 1:1:1 formulation; type: ADME, organism-based; parameters: dose 240 mg/kg, route oral; conditions: in vivo
# [11] = Apparent permeability from apical to basolateral side of human Caco2 cells at compound, Lipoid S100 and pluronic f127 ratio 1:1:1 using HBSS buffer; type: ADME, cell-based; conditions: Caco-2
# [12] = Permeability from apical to basolateral side of human Caco2 cells assessed as mass balance at compound, Lipoid S100 and gelucire 44/14 ratio 1:1:1; type: ADME, cell-based; conditions: Caco-2, read-out: permeability
# [13] = Solubility of the compound in fasted state simulated intestinal fluid at compound to Lipoid S100 ratio 1:1 after 3 hrs by HPLC analysis in presence of 10:1 molar ratio of Lipoid S100 to tween 80; type: physicochemical
# [14] = Solubility of the compound in fasted state simulated intestinal fluid at compound to Lipoid S100 ratio 1:1 after 3 hrs by HPLC analysis in presence of 3:1 molar ratio of Lipoid S100 to tween 80; type: physicochemical
# [15] = Permeability from apical to basolateral side of human Caco2 cells assessed as mass balance at compound, Lipoid S100 and pluronic f127 ratio 1:1:1; type: ADME, cell-based; conditions: Caco-2, read-out: permeability
# [16] = Solubility of the compound in fed state simulated intestinal fluid at 5 mg/mL after 3 hrs by HPLC analysis; type: physicochemical
# [17] = Solubility of the compound in fasted state simulated intestinal fluid at compound to Lipoid S100 ratio 1:3 after 3 hrs by HPLC analysis in presence of 10:1 molar ratio of Lipoid S100 to tween 80; type: physicochemical
# Caco-2 = experiment: Permeability from apical to basolateral side of human Caco2 cells at compound to Lipoid S100 ratio 1:3 in presence of 5:1 molar ratio of Lipoid S100 to tween 80; type: ADME, cell-based; conditions: BLD = below limit of detection
# [18] = Permeability from apical to basolateral side of human Caco2 cells assessed as mass balance at compound, Lipoid S100 and pluronic f68 ratio 1:1:1; type: ADME, cell-based; conditions: Caco-2, read-out: permeability
# [19] = Solubility of the compound in fed state simulated intestinal fluid at compound to Lipoid S100 ratio 1:1 after 3 hrs by HPLC analysis; type: physicochemical
# [20] = Apparent permeability from apical to basolateral side of human Caco2 cells at compound, Lipoid S100 and pluronic f127 ratio 1:1:1 using modified fasted state simulated intestinal fluid; type: ADME, cell-based; conditions: Caco-2
# [21] = Permeability from apical to basolateral side of human Caco2 cells assessed as mass balance at compound, Lipoid S100 and vitamin E-TPGS ratio 1:2:1; type: ADME, cell-based; conditions: Caco-2, read-out: permeability
# [22] = Solubility of the compound in fasted state simulated intestinal fluid at compound to Lipoid S100 ratio 1:3 after 3 hrs by HPLC analysis; type: physicochemical
# [23] = Permeability from apical to basolateral side of human Caco2 cells assessed as mass balance at compound to Lipoid S100 ratio 1:3 in presence of 5:1 molar ratio of Lipoid S100 to tween 80; type: ADME, cell-based; conditions: Caco-2, read-out: permeability
# [24] = Solubility of the compound in water at compound to Lipoid S100 ratio 1:3 after 3 hrs by HPLC analysis; type: physicochemical
# [25] = Solubility of the compound in fasted state simulated intestinal fluid at compound to Lipoid S100 ratio 1:1 after 3 hrs by HPLC analysis; type: physicochemical
# [26] = Solubility of the compound in water at pH 6.5; type: physicochemical
# [27] = Solubility of the compound in fasted state simulated intestinal fluid at compound, Lipoid S100 and pluronic f127 ratio 1:1:1 after 3 hrs by HPLC analysis; type: physicochemical
# [28] = Solubility of the compound in water at 5 mg/mL after 3 hrs by HPLC analysis; type: physicochemical
# [29] = Solubility of the compound in fasted state simulated intestinal fluid at 5 mg/mL after 3 hrs by HPLC analysis; type: physicochemical
# [30] = Permeability from apical to basolateral side of human Caco2 cells assessed as mass balance at compound, Lipoid S100 and tween 80 ratio 1:1:1; type: ADME, cell-based; conditions: Caco-2, read-out: permeability
# [31] = Solubility of the compound in fasted state simulated intestinal fluid at compound to Lipoid S100 ratio 1:3 after 3 hrs by HPLC analysis in presence of 5:1 molar ratio of Lipoid S100 to tween 80; type: physicochemical
# [32] = Apparent permeability from apical to basolateral side of human Caco2 cells at compound, Lipoid S100 and pluronic f127 ratio 1:1:1 using modified fed state simulated intestinal fluid; type: ADME, cell-based; conditions: Caco-2
# [33] = Solubility of the compound in fasted state simulated intestinal fluid at compound to Lipoid S100 ratio 1:1 after 3 hrs by HPLC analysis in presence of 5:1 molar ratio of Lipoid S100 to tween 80; type: physicochemical
# [34] = Solubility of the compound in water at compound to Lipoid S100 ratio 1:1 after 3 hrs by HPLC analysis; type: physicochemical
# [35] = Permeability from apical to basolateral side of human Caco2 cells assessed as mass balance at compound to Lipoid S100 ratio 1:3; type: ADME, cell-based; conditions: Caco-2, read-out: permeability
# [36] = Solubility of the compound in fasted state simulated intestinal fluid at compound to Lipoid S100 ratio 1:3 after 3 hrs by HPLC analysis in presence of 3:1 molar ratio of Lipoid S100 to tween 80; type: physicochemical
# Plasma [37] = experiment: Plasma concentration in rat at 240 mg/kg, po administered using compound, Lipoid S100 and pluronic f127 ratio 1:1:1 formulation relative to non-formulated compound after 2 hrs; type: ADME, organism-based; parameters: dose 240 mg/kg, route oral; conditions: in vivo
# [38] = Permeability from apical to basolateral side of human Caco2 cells assessed as mass balance at compound to Lipoid S100 ratio 1:1; type: ADME, cell-based; conditions: Caco-2, read-out: permeability
# [39] = Solubility of the compound in HBSS buffer containing 4% bovine serum albumin at 5 mg/mL after 3 hrs by HPLC analysis; type: physicochemical
# [40] = Solubility of the compound in modified fasted state simulated intestinal fluid at 5 mg/mL after 3 hrs by HPLC analysis; type: physicochemical
structure (smiles),measurement,setting,value
CC1(C)CC[C@]2(C)CC[C@]3(C)C(=CC[C@@H]4[C@@]5(C)CC[C@@H](O)[C@](C)(C(=O)O)[C@@H]5CC[C@]43C)[C@@H]2C1,fold change (FC),Plasma [1],26
same,Drug uptake,Brain [2],485.1 ng/g
same,Drug uptake,Brain [3],2443.9 ng/g
same,Kp at 8 h,[4],4.4
same,Kp at 8 h,[5],0.18
C[C@H]1[C@H](C)CC[C@]2(C)CC[C@]3(C)C(=CC[C@@H]4[C@@]5(C)CC[C@@H](O)[C@](C)(C(=O)O)[C@@H]5CC[C@]43C)[C@H]12 [BOSWELLIC ACID],fold change (FC),Plasma [1],26
same,Drug uptake,Brain [2],1066.6 ng/g
same,IC50,Prostaglandin E synthase,5 µM
same,Drug uptake,Brain [3],5908.2 ng/g
same,Kp at 8 h,[4],5.5
same,Kp at 8 h,[5],0.2
CC(=O)O[C@@H]1CC[C@@]2(C)[C@@H](CC[C@]3(C)[C@@H]2C(=O)C=C2[C@@H]4[C@@H](C)[C@H](C)CC[C@]4(C)CC[C@]23C)[C@@]1(C)C(=O)O [AKBA],recovery at 5 mg/mL,[6],95.2%
same,solubility at 3 h,[7],35.8 µg/mL
same,recovery,[8],98.8%
same,fold change (FC),Plasma [9],6
same,concentration,Plasma [10],1700 nM
same,Papp A→B,[11],2.5 ×10⁻⁶ cm/s
same,recovery,[12],90.7%
same,solubility at 3 h,[13],13.4 µg/mL
same,solubility at 3 h,[14],27.6 µg/mL
same,recovery,[15],101%
same,solubility at 3 h,[16],13.2 µg/mL
same,solubility at 3 h,[17],44.7 µg/mL
same,permeability,Caco-2,BLD
same,recovery,[18],87.8%
same,solubility at 3 h,[19],48 µg/mL
same,Papp A→B,[20],3.1 ×10⁻⁶ cm/s
same,Drug uptake,Brain [2],37.5 ng/g
same,recovery,[21],98%
same,solubility at 3 h,[22],29.7 µg/mL
same,recovery,[23],104%
same,solubility at 3 h,[24],51.4 µg/mL
same,solubility at 3 h,[25],24.2 µg/mL
same,solubility,[26],> 60 µg/mL
same,Drug uptake,Brain [3],203.8 ng/g
same,solubility at 3 h,[27],65.3 µg/mL
same,solubility at 3 h,[28],0.2 µg/mL
same,solubility at 3 h,[29],3.05 µg/mL
same,recovery,[30],93.3%
same,Kp at 8 h,[4],2.2
same,solubility at 3 h,[31],59.5 µg/mL
same,Papp A→B,[32],2.8 ×10⁻⁶ cm/s
same,solubility at 3 h,[33],18.2 µg/mL
same,solubility at 3 h,[34],0.87 µg/mL
same,recovery,[35],96.4%
same,solubility at 3 h,[36],69.5 µg/mL
same,fold change (FC),Plasma [37],14
same,recovery,[38],88.3%
same,Kp at 8 h,[5],0.07
C[C@H]1[C@H](C)CC[C@]2(C)CC[C@]3(C)C(=CC(=O)[C@@H]4[C@@]5(C)CC[C@@H](O)[C@](C)(C(=O)O)[C@@H]5CC[C@]43C)[C@H]12 [11-KETO BOSWELLIC ACID],recovery at 5 mg/mL,[6],101%
same,solubility at 3 h,[7],183 µg/mL
same,recovery,[8],101%
same,fold change (FC),Plasma [9],6
same,Papp A→B,[11],2.9 ×10⁻⁶ cm/s
same,recovery,[12],92%
same,solubility at 3 h,[13],78.2 µg/mL
same,solubility at 3 h,[14],164 µg/mL
same,recovery,[15],99.9%
same,solubility at 3 h,[16],73.1 µg/mL
same,solubility at 3 h,[17],246 µg/mL
same,solubility at 3 h,[39],17.5 µg/mL
same,permeability,Caco-2,BLD
same,recovery,[18],90.1%
same,solubility at 3 h,[19],252 µg/mL
same,Papp A→B,[20],3.7 ×10⁻⁶ cm/s
same,Drug uptake,Brain [2],11.6 ng/g
same,recovery,[21],99.8%
same,solubility at 3 h,[22],151 µg/mL
same,recovery,[23],102%
same,solubility at 3 h,[24],192 µg/mL
same,solubility at 3 h,[40],17 µg/mL
same,solubility at 3 h,[25],124 µg/mL
same,solubility,[26],73.1 µg/mL
same,Drug uptake,Brain [3],13.6 ng/g
same,solubility at 3 h,[27],395 µg/mL
same,solubility at 3 h,[28],1.16 µg/mL
same,solubility at 3 h,[29],15.9 µg/mL
same,recovery,[30],96.3%
same,solubility at 3 h,[31],293 µg/mL
same,Papp A→B,[32],3.2 ×10⁻⁶ cm/s
same,solubility at 3 h,[33],109 µg/mL
same,solubility at 3 h,[34],5.18 µg/mL
same,recovery,[35],96%
same,solubility at 3 h,[36],400 µg/mL
same,fold change (FC),Plasma [37],26
same,recovery,[38],93.9%
CC(=O)O[C@@H]1CC[C@@]2(C)[C@@H](CC[C@]3(C)[C@@H]2CC=C2[C@@H]4[C@@H](C)[C@H](C)CC[C@]4(C)CC[C@]23C)[C@@]1(C)C(=O)O,fold change (FC),Plasma [1],26
same,Drug uptake,Brain [2],163.7 ng/g
same,Drug uptake,Brain [3],156.1 ng/g
CC(=O)O[C@@H]1CC[C@@]2(C)[C@@H](CC[C@]3(C)[C@@H]2CC=C2[C@@H]4CC(C)(C)CC[C@]4(C)CC[C@]23C)[C@@]1(C)C(=O)O,fold change (FC),Plasma [1],26
same,Drug uptake,Brain [2],43 ng/g
same,Drug uptake,Brain [3],60.1 ng/g

# — ChEMBL document CHEMBL2150989, “Effect of phospholipid-based formulations of Boswellia serrata extract on the solubility, permeability, and absorption of the individual boswellic acid constituents present” (J Nat Prod, 2012)
